Experimental data from patent US20040224995A1 (University of North Texas Health Science Center at Fort …, priority 2003, published 2004).

Legend:
HT-22 cells = assay: HT-22 cell viability during glutamate exposure (calcein AM assay); format: cell-based; conditions: for neuroprotection after withdrawal of compound-containing medium: 24 h preincubation, medium washed away, then glutamate (15 mM); for concentration at which toxicity was observed: HT-22, glutamate experiments; for neuroprotection against glutamate insult (cell viability): HT-22, 24 h preincubation before glutamate
From the text: Although not wanting to be bound by theory, the toxicity of glutamate in HT-22 (32) and C6 glioma (33) cell lines is mediated through oxidative stress. HT-22 cells lack ionotropic N-methyl-D-aspartate (“NMDA”) glutamate receptors, and the glutamate-induced cell death appears to occur via a slow onset oxidative stress (32,34,35). Glutamate blocks cystine uptake by inhibiting the glutamate/cystine antiporter in both HT-22 (32) and C6 glioma (33) cell lines. Since cysteine is required for glutathione (“GSH”) synthesis, the intracellular concentration of GSH decreases as a consequence. BSO depletes intracellular glutathione by inhibiting γ-glutamylcysteine synthetase, the rate-limiting enzyme in glutathione synthesis (33). […] Troglitazone further protected HT-22 (FIG. 14) and RGC-5 (FIG. 15) against BSO. The cell viability was taken at time points around about 14 to 24 hours post-insult time. In some of the experiments, the viability of cells was determined using 2.5 μM calcein AM assay in phosphate-buffered saline (PBS 1×). After 25 minutes of incubation, live cells were distinguished by the presence of intracellular esterase activity, which cleaves the calcein AM dye, producing a bright green fluorescence, as shown in FIG. 22. Viability was measured in Relative Fluorescent Units (“RFU”), and expressed as percentage of vehicle-treated control values.
15d-PGJ2 and two TZD's (e.g. troglitazone and ciglitazone) were tested for their ability to protect HT-22 cells against glutamate toxicity. […] HT-22 cells were treated with 15-dPGJ2 twenty-four hours prior to a glutamate insult (15 mM). […] The data of FIG. 24 was quantified using the calcein AM assay (see FIG. 22). Results are expressed in % survival of the control (non-glutamate-treated) cultures. DMSO received the vehicle only for 15d-PGJ2. Shown are mean±SEM for 6. The asterisk (“*”) indicates p<0.05 vs. respective control.
In order to conduct these experiments, the following compounds: PGA1; PGA2; PGJ2; Δ^12PGJ2; and 15d-PGJ2 were ordered from Biomol, Plymouth Meeting, Pa. HT-22, an immortalized mouse hippocampal cell line, C6 rat glioma, RGC-5 retinal ganglion cells were used. Cells were grown to confluence in DMEM media, and supplemented with 10% charcoal/dextran-treated fetal bovine serum (“FBS”), and […] gentamycin at 37° C. under 95% air, 5% CO2. HT-22, C6, and RGC-5 cells were plated at a density of 50,000, 35,000, and 10,000 cells/ml, respectively, in 96-well plates. Wells were pre-treated with cyclopentenone PGs at various times prior to being subjected to glutamate, hydrogen peroxide (H2O2), or BSO insults.
The WY-14643, Ciglitazone, Troglitazone, 9-cis retinoic acid, and 15d-PGJ2 compounds were purchased from Biomol (Plymouth Meeting, Pa.). L-165041 and L-783483 were kindly provided by Merck Laboratories. The cell lines used were HT-22, an immortalized mouse hippocampal cell line, and SK—N—SH, a human neuroblastoma cell line. The HT-22 cells were obtained from David Schubert (Salk Institute, San Diego, Calif.). The HT-22 line was originally selected from HT-4 cells based on glutamate sensitivity. HT-4 cells were immortalized from primary hippocampal neurons using a temperature-sensitive SV-40 T antigen (Morimoto and Koshland, 1990). SK—N—SH were obtained from ATCC (Manassas, Va.). HT-22 and SK—N—SH cells were grown to confluence in DMEM and RPMI-1640 media, respectively, and supplemented with 10% charcoal/dextran-treated fetal bovine serum (FBS), and 5 mg/ml gentamycin at 37° C. under 95% air, 5% CO2. HT-22 cells were plated at a density of 50,000 cells/ml (5,000 cells/well), and SK—N—SH were plated at a density of 120,000 to 150,000 cells/ml (12,000 to 15,000 cells/well) in 96-well plates. In most studies, wells were pre-treated with PPAR ligands over a wide dose range at various times prior to being subjected to either glutamate, hydrogen peroxide (H2O2), or serum deprivation insults. In some studies, the insults were applied prior to the addition of the PPAR ligand. […]

C6 Glioma cells = assay: C6 glioma glutamate cytotoxicity; format: cell-based, rat; conditions: dose dependent manner
Description: (§1) The in vitro model used for oxidative cell death was based upon glutamate, hydrogen peroxide, and buthionine sulfoximine (“BSO”) administration to HT-22 mouse hippocampal, C6 rat glioma, and RGC-5 retinal ganglion cell lines. The ease that the above cell lines are cultured is well known in the art of cell culture. Additionally, these cell lines are suitable for screening a various number of compounds described in the present invention.
(§2) Although not wanting to be bound by theory, the toxicity of glutamate in HT-22 (32) and C6 glioma (33) cell lines is mediated through oxidative stress. HT-22 cells lack ionotropic N-methyl-D-aspartate (“NMDA”) glutamate receptors, and the glutamate-induced cell death appears to occur via a slow onset oxidative stress (32,34,35). Glutamate blocks cystine uptake by inhibiting the glutamate/cystine antiporter in both HT-22 (32) and C6 glioma (33) cell lines. […] In some of the experiments, the viability of cells was determined using 2.5 μM calcein AM assay in phosphate-buffered saline (PBS 1×). After 25 minutes of incubation, live cells were distinguished by the presence of intracellular esterase activity, which cleaves the calcein AM dye, producing a bright green fluorescence, as shown in FIG. 22. Viability was measured in Relative Fluorescent Units (“RFU”), and expressed as percentage of vehicle-treated control values. […]

RGC-5 cells = assay: RGC-5 glutamate cytotoxicity; format: cell-based; conditions: dose dependent manner
Description: as §1, §2

SMILES	neuroprotection after withdrawal of compound-containing medium (HT-22 cells)	concentration at which toxicity was observed (HT-22 cells)	neuroprotection against glutamate insult (cell viability) (HT-22 cells)	neuroprotective effect of prostaglandins against glutamate toxicity (HT-22 cells; added 24 h before glutamate (15 mM), viability 15 h later)	neuroprotection when added with or after glutamate (HT-22 cells; added at same time as glutamate or up to ten hours thereafter)	exposure time required to achieve significant neuroprotection (HT-22 cells; preincubation before glutamate (15 mM), 5 μM)	protection against glutamate toxicity (C6 Glioma cells)	protection against glutamate toxicity (RGC-5 cells)	protection versus time of administration prior to glutamate insult (HT-22 cells; administered 0 to 10 hours prior to insult)	time post glutamate insult up to which neuroprotective effects remained unaltered (HT-22 cells; post-treatment 0 to 10 hours after glutamate)	protection at 8 and 10 hours post glutamate insult (HT-22 cells; post-treatment, extent of protection decreased)
CCCCC/C=C/C=C1/C(=O)C=C[C@@H]1C/C=C\CCCC(=O)O [15d-PGJ2, 15-deoxy-Δ^12,14-PGJ2]	protected in a dose dependent manner	≥ 10 µM	dose-dependent protection	potent neuroprotective effect	failed to display any neuroprotective effects	four to six	protected	protected			
Cc1c(C)c2c(c(C)c1O)CCC(C)(COc1ccc(CC3SC(=O)NC3=O)cc1)O2 (stereo not shown) [troglitazone]	loss of neuroprotection	≥ 20 µM	dose-dependent protection				protected	protected	equally protective	up to 6 hours	still significantly protected
